The text below walks through data of BindingDB's records for doi:10.3109/14756366.2012.727812 (Shiraz University, 2013).

In general, IC50 refers to the concentration that gives 50% inhibition. One may read the Ki as a dissociation constant, usually derived from enzyme kinetics or from competition with a known ligand. A lower Ki goes with a stronger hold on the target.

Several values for one entry are separate records, joined by “and”; a condition that tells them apart may be missing. Equal entries are not always repeated.

Chain of Alpha-glucosidase MAL12 (P53341 whole entry): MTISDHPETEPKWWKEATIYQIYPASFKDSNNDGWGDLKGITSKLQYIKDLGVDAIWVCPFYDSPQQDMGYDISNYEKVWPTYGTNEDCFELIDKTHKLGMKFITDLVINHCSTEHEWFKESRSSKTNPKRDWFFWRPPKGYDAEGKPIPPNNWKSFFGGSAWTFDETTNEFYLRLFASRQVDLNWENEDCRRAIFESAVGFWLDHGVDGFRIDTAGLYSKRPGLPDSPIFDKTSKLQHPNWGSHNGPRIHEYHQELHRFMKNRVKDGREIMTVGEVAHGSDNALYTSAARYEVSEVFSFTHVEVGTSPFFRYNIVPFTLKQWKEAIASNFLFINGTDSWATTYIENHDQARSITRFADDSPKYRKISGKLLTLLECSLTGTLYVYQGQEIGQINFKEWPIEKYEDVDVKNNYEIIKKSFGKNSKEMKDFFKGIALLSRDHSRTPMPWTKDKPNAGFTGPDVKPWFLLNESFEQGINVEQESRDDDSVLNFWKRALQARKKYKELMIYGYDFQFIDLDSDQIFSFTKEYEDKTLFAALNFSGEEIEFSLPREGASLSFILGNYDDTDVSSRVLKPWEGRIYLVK

This assay addresses Alpha-glucosidase MAL12 (Saccharomyces cerevisiae (strain ATCC 204508 / S288c), UniProt P53341). Nature of the assay: Inhibition Assay. As to conditions: pH 7. Here is the method:
In this study, the inhibition assay of yeast enzyme was performed in 100 mM phosphate buffer pH 7.0 at 25°C with minor changes, according to the methods reported previously. [Saijyo et al., J. Oleo. […] After centrifugation, the supernatant was dialyzed against 10 mM potassium phosphate buffer (pH 7.0) containing 0.
Consider `O=c1[nH]c2c(c(=O)[nH]1)C(C(O)C(O)C(O)C(O)CO)c1c([nH]c(=O)[nH]c1=O)N2c1ccc(O)cc1` (stereo not drawn) [α-Gl inhibitor, C1], for which the IC50 was 74.9 µM; the inhibitory constant (Ki) is 70 µM and 170 µM.

For the compound `Nc1ccc(S(=O)(=O)c2ccc(N3c4[nH]c(=O)[nH]c(=O)c4C(C(O)C(O)C(O)C(O)CO)c4c3[nH]c(=O)[nH]c4=O)cc2)cc1` (stereo not drawn) [α-Gl inhibitor, C3], the IC50 amounted to 9.6 µM and the affinity corresponds to a Ki of 14 µM.

Regarding `O=c1[nH]c2c(c(=O)[nH]1)C(C(O)C(O)C(O)C(O)CO)c1c([nH]c(=O)[nH]c1=O)N2c1ccc(Br)cc1` (stereo not drawn) [α-Gl inhibitor, C2], the 50% inhibitory concentration (IC50) amounted to 25.1 µM; the Ki was 30 µM and 130 µM.
